Results: article PMC5218480 (PLoS ONE, 2017)

System: MV-4-11 cells
Test: Gene expression microarray analysis (Affymetrix PrimeView) and GSEA
Assay type: cell-based, human
Design: RFU PODN (11730768_x_at) / Fold change /veh PODN (11730768_x_at) / RFU LINC00158 (11744669_a_at) / Fold change /veh LINC00158 (11744669_a_at) / RFU DUSP10 (11751237_a_at) / Fold change /veh DUSP10 (11751237_a_at) / RFU ID3 (11757404_x_at) / Fold change /veh ID3 (11757404_x_at) / RFU PLEKHG5 (11737974_s_at) / Fold change /veh PLEKHG5 (11737974_s_at) / RFU LRRC4B (11730491_at) / Fold change /veh LRRC4B (11730491_at) / RFU GIMAP4 (11747438_a_at) / Fold change /veh GIMAP4 (11747438_a_at) / RFU KRT8 (11758183_x_at) / Fold change /veh KRT8 (11758183_x_at) / RFU CNN1 (11734310_a_at) / Fold change /veh CNN1 (11734310_a_at) / RFU VPS37D (11726825_at) / Fold change /veh VPS37D (11726825_at) / RFU C10orf10 (11716522_x_at) / Fold change /veh C10orf10 (11716522_x_at) / RFU KIR2DL2 /// KIR2DL4 /// KIR2DL5A /// KIR2DL5B /// KIR2DS1 /// KIR2DS2 /// KIR2DS3 /// KIR2DS4 /// KIR3DL3 /// KIR3DL3 /// KIR3DS1 (11738374_at) / Fold change /veh KIR2DL2 /// KIR2DL4 /// KIR2DL5A /// KIR2DL5B /// KIR2DS1 /// KIR2DS2 /// KIR2DS3 /// KIR2DS4 /// KIR3DL3 /// KIR3DL3 /// KIR3DS1 (11738374_at) / RFU C1QL1 (11718748_at) / Fold change /veh C1QL1 (11718748_at) / RFU TMPRSS4 (11747572_a_at) / Fold change /veh TMPRSS4 (11747572_a_at) / RFU HAMP (11756126_x_at) / Fold change /veh HAMP (11756126_x_at) / RFU RNFT2 (11725882_a_at) / Fold change /veh RNFT2 (11725882_a_at) / RFU NR4A2 (11747474_a_at) / Fold change /veh NR4A2 (11747474_a_at) / RFU ABCC12 (11746883_a_at) / Fold change /veh ABCC12 (11746883_a_at) / RFU TMEM136 (11760407_x_at) / Fold change /veh TMEM136 (11760407_x_at) / RFU CLDN22 /// WWC2 (11732394_at) / Fold change /veh CLDN22 /// WWC2 (11732394_at) / RFU HLA-DPB1 (11760878_x_at) / Fold change /veh HLA-DPB1 (11760878_x_at) / RFU SPINT1 (11716480_a_at) / Fold change /veh SPINT1 (11716480_a_at) / RFU GAP43 (11754022_s_at) / Fold change /veh GAP43 (11754022_s_at) / RFU A4GNT (11735810_at) / Fold change /veh A4GNT (11735810_at) / RFU PRB3 (11715151_x_at) / Fold change /veh PRB3 (11715151_x_at) / RFU TUBB4B (11761932_at) / Fold change /veh TUBB4B (11761932_at) / RFU CAPN14 (11732068_a_at) / Fold change /veh CAPN14 (11732068_a_at) / RFU TMCC2 (11721928_a_at) / Fold change /veh TMCC2 (11721928_a_at) / RFU IRGQ (11745062_a_at) / Fold change /veh IRGQ (11745062_a_at) / RFU FAM174B (11720279_a_at) / Fold change /veh FAM174B (11720279_a_at) / RFU TMPRSS4 (11748680_a_at) / Fold change /veh TMPRSS4 (11748680_a_at) / RFU FAM212B (11763350_a_at) / Fold change /veh FAM212B (11763350_a_at) / RFU PLEKHG5 (11743358_a_at) / Fold change /veh PLEKHG5 (11743358_a_at) / RFU ZSCAN30 (11745921_a_at) / Fold change /veh ZSCAN30 (11745921_a_at) / RFU CMKLR1 (11741424_a_at) / Fold change /veh CMKLR1 (11741424_a_at) / RFU LOC101060620 /// MAPK8IP1 (11723275_at) / Fold change /veh LOC101060620 /// MAPK8IP1 (11723275_at) / RFU SPTSSB (11747773_x_at) / Fold change /veh SPTSSB (11747773_x_at) / RFU PRSS12 (11739890_at) / Fold change /veh PRSS12 (11739890_at) / RFU BIN1 (11741810_x_at) / Fold change /veh BIN1 (11741810_x_at) / RFU WNT11 (11732464_a_at) / Fold change /veh WNT11 (11732464_a_at) / RFU C10orf10 (11716521_a_at) / Fold change /veh C10orf10 (11716521_a_at) / RFU C5orf56 (11738089_at) / Fold change /veh C5orf56 (11738089_at) / RFU CYB561 (11721691_x_at) / Fold change /veh CYB561 (11721691_x_at) / RFU ANKRD19P (11752326_a_at) / Fold change /veh ANKRD19P (11752326_a_at) / RFU OR2T12 /// OR2T33 /// OR2T8 (11738714_s_at) / Fold change /veh OR2T12 /// OR2T33 /// OR2T8 (11738714_s_at) / RFU VCAN (11748164_a_at) / Fold change /veh VCAN (11748164_a_at) / RFU JSRP1 (11732532_at) / Fold change /veh JSRP1 (11732532_at) / RFU KRTAP10-11 (11738290_x_at) / Fold change /veh KRTAP10-11 (11738290_x_at) / RFU MYO3A (11730013_a_at) / Fold change /veh MYO3A (11730013_a_at) / RFU EBF3 (11725865_a_at) / Fold change /veh EBF3 (11725865_a_at) / RFU CAMK2N1 (11719241_x_at) / Fold change /veh CAMK2N1 (11719241_x_at) / RFU C5orf56 (11738088_a_at) / Fold change /veh C5orf56 (11738088_a_at) / RFU OLFML3 (11715873_a_at) / Fold change /veh OLFML3 (11715873_a_at) / RFU LOC100653217 /// NTM (11731650_a_at) / Fold change /veh LOC100653217 /// NTM (11731650_a_at) / RFU MAPK11 (11762145_a_at) / Fold change /veh MAPK11 (11762145_a_at) / RFU FIZ1 (11724087_x_at) / Fold change /veh FIZ1 (11724087_x_at) / RFU OASL (11726364_x_at) / Fold change /veh OASL (11726364_x_at) / RFU SOX15 (11748057_x_at) / Fold change /veh SOX15 (11748057_x_at) / RFU CD79A (11719716_a_at) / Fold change /veh CD79A (11719716_a_at) / RFU HIST1H1D (11736915_at) / Fold change /veh HIST1H1D (11736915_at) / RFU CASKIN2 (11723855_a_at) / Fold change /veh CASKIN2 (11723855_a_at) / RFU LOC730098 (11760151_x_at) / Fold change /veh LOC730098 (11760151_x_at) / RFU OR4N2 (11742367_at) / Fold change /veh OR4N2 (11742367_at) / RFU PRRT2 (11749266_a_at) / Fold change /veh PRRT2 (11749266_a_at) / RFU SNX32 (11753110_a_at) / Fold change /veh SNX32 (11753110_a_at) / RFU CDHR5 (11726645_a_at) / Fold change /veh CDHR5 (11726645_a_at) / RFU RCAN1 (11760418_a_at) / Fold change /veh RCAN1 (11760418_a_at) / RFU FAM167A (11723789_a_at) / Fold change /veh FAM167A (11723789_a_at) / RFU FAM26E (11764081_at) / Fold change /veh FAM26E (11764081_at) / RFU ISYNA1 (11749810_s_at) / Fold change /veh ISYNA1 (11749810_s_at) / RFU ACY1 (11761880_at) / Fold change /veh ACY1 (11761880_at) / RFU 11764098_at / Fold change /veh 11764098_at / RFU SAMD14 (11745864_x_at) / Fold change /veh SAMD14 (11745864_x_at) / RFU NPB (11741838_a_at) / Fold change /veh NPB (11741838_a_at) / RFU TMPRSS6 (11731388_a_at) / Fold change /veh TMPRSS6 (11731388_a_at) / RFU KRTAP10-2 (11738614_at) / Fold change /veh KRTAP10-2 (11738614_at) / RFU ARHGAP8 /// PRR5-ARHGAP8 (11727945_x_at) / Fold change /veh ARHGAP8 /// PRR5-ARHGAP8 (11727945_x_at) / RFU KRTAP5-7 /// NADSYN1 (11734609_at) / Fold change /veh KRTAP5-7 /// NADSYN1 (11734609_at) / RFU RASL12 (11751679_a_at) / Fold change /veh RASL12 (11751679_a_at) / RFU CDKN2B (11736163_a_at) / Fold change /veh CDKN2B (11736163_a_at) / RFU PRF1 (11729649_at) / Fold change /veh PRF1 (11729649_at) / RFU, ZNF638 /// ZNF638-IT1 / Fold change vs veh, ZNF638 /// ZNF638-IT1 / RFU, PANK3 / Fold change vs veh, PANK3 / RFU, SH3YL1 / Fold change vs veh, SH3YL1 / RFU, ZEB2 / Fold change vs veh, ZEB2 / RFU, NRIP1 / Fold change vs veh, NRIP1 / RFU, PTTG1IP / Fold change vs veh, PTTG1IP / RFU, CAPN2 / Fold change vs veh, CAPN2 / RFU, MED14 / Fold change vs veh, MED14 / RFU, SNORA58 / Fold change vs veh, SNORA58 / RFU, C1orf63 / Fold change vs veh, C1orf63 / RFU, LRRFIP1 / Fold change vs veh, LRRFIP1 / RFU, NDUFAF7 / Fold change vs veh, NDUFAF7 / RFU, SLC12A2 / Fold change vs veh, SLC12A2 / RFU, IBTK / Fold change vs veh, IBTK / RFU, ESF1 / Fold change vs veh, ESF1 / Fold change vs veh, TMEM50B / RFU, TAOK1 / Fold change vs veh, TAOK1 / RFU, ACBD3 / Fold change vs veh, ACBD3 / RFU, TMA16 / Fold change vs veh, TMA16 / RFU, RWDD3 / Fold change vs veh, RWDD3 / RFU, BCAT1 / Fold change vs veh, BCAT1 / RFU, EDEM3 / Fold change vs veh, EDEM3 / RFU, TMEM33 / Fold change vs veh, TMEM33 / RFU, WDR75 / Fold change vs veh, WDR75 / RFU, AHCTF1 / Fold change vs veh, AHCTF1 / RFU, TFRC / Fold change vs veh, TFRC / RFU, ZDHHC17 / Fold change vs veh, ZDHHC17 / RFU, NOM1 / Fold change vs veh, NOM1 / RFU, ARL8B / Fold change vs veh, ARL8B / RFU, ZBTB11 / Fold change vs veh, ZBTB11 / RFU, TAMM41 / Fold change vs veh, TAMM41 / RFU, KIAA1704 /// LOC100996395 / Fold change vs veh, KIAA1704 /// LOC100996395 / RFU, ING1 / Fold change vs veh, ING1 / RFU, TRMT61B / Fold change vs veh, TRMT61B / RFU, FUBP3 / Fold change vs veh, FUBP3 / RFU, TP53 / Fold change vs veh, TP53 / RFU, TNKS2 / Fold change vs veh, TNKS2 / RFU, ZFP14 / Fold change vs veh, ZFP14 / RFU, ACTR2 / Fold change vs veh, ACTR2 / RFU, PPP3R1 / Fold change vs veh, PPP3R1 / RFU, PIK3R1 / Fold change vs veh, PIK3R1 / RFU, HNRNPA1 / Fold change vs veh, HNRNPA1 / RFU, RNF170 / Fold change vs veh, RNF170 / RFU, ZNF28 / Fold change vs veh, ZNF28 / RFU, RNGTT / Fold change vs veh, RNGTT / RFU, OGT / Fold change vs veh, OGT / RFU, BRD1 / Fold change vs veh, BRD1 / RFU, MARS / Fold change vs veh, MARS / RFU, ZNF655 / Fold change vs veh, ZNF655 / RFU, FAHD1 / Fold change vs veh, FAHD1 / RFU, BDP1 / Fold change vs veh, BDP1 / RFU, LRRCC1 / Fold change vs veh, LRRCC1 / RFU, ARID1A / Fold change vs veh, ARID1A / RFU, ZNF146 / Fold change vs veh, ZNF146 / RFU, ZNF330 / Fold change vs veh, ZNF330 / RFU, GPN3 / Fold change vs veh, GPN3 / RFU, C9orf123 / Fold change vs veh, C9orf123 / RFU, N4BP2L2 / Fold change vs veh, N4BP2L2 / RFU, ARFIP1 / Fold change vs veh, ARFIP1 / RFU, FAM179B / Fold change vs veh, FAM179B / RFU, BCL10 / Fold change vs veh, BCL10 / RFU, UHRF1BP1L / Fold change vs veh, UHRF1BP1L / RFU, BET1 / Fold change vs veh, BET1 / RFU, CNOT2 / Fold change vs veh, CNOT2 / RFU, ZNF268 / Fold change vs veh, ZNF268 / Fold change vs veh, ZNF507 / RFU, DGCR2 / Fold change vs veh, DGCR2 / RFU, WDSUB1 / Fold change vs veh, WDSUB1 / Fold change vs veh, HSP90B1 /// MIR3652 / RFU, ADSS / Fold change vs veh, ADSS / RFU, GK / Fold change vs veh, GK / RFU, ZNF148 / Fold change vs veh, ZNF148 / RFU, TAF9 / Fold change vs veh, TAF9 / RFU, SLC1A5 / Fold change vs veh, SLC1A5 / RFU, SLMO2 / Fold change vs veh, SLMO2 / RFU, ABCC4 / Fold change vs veh, ABCC4 / RFU, LOC101060439 /// RAP1B / Fold change vs veh, LOC101060439 /// RAP1B / RFU, RFX7 / Fold change vs veh, RFX7 / RFU, GTPBP10 / Fold change vs veh, GTPBP10 / RFU, CNEP1R1 / Fold change vs veh, CNEP1R1 / RFU, BIVM-ERCC5 /// ERCC5 / Fold change vs veh, BIVM-ERCC5 /// ERCC5 / RFU, ILF3 / Fold change vs veh, ILF3 / RFU 11762660_at / Fold change /veh 11762660_at / RFU VCAN (11757783_s_at) / Fold change /veh VCAN (11757783_s_at) / RFU DDX43 (11728927_at) / Fold change /veh DDX43 (11728927_at) / RFU KRT8 (11758188_x_at) / Fold change /veh KRT8 (11758188_x_at) / RFU NKD1 (11759106_at) / Fold change /veh NKD1 (11759106_at) / RFU SRD5A1 (11742802_a_at) / Fold change /veh SRD5A1 (11742802_a_at) / RFU TPSAB1 /// TPSB2 (11721975_s_at) / Fold change /veh TPSAB1 /// TPSB2 (11721975_s_at) / RFU GSTM3 (11746129_a_at) / Fold change /veh GSTM3 (11746129_a_at) / RFU IL23R (11737362_x_at) / Fold change /veh IL23R (11737362_x_at) / RFU TMEM51 (11727254_a_at) / Fold change /veh TMEM51 (11727254_a_at) / RFU PIWIL2 (11732686_x_at) / Fold change /veh PIWIL2 (11732686_x_at) / RFU ORM1 (11744905_x_at) / Fold change /veh ORM1 (11744905_x_at) / RFU CCDC152 (11743942_at) / Fold change /veh CCDC152 (11743942_at) / RFU ECM1 (11717891_a_at) / Fold change /veh ECM1 (11717891_a_at) / RFU IL23R (11748794_a_at) / Fold change /veh IL23R (11748794_a_at) / RFU TNFAIP8L3 (11732012_x_at) / Fold change /veh TNFAIP8L3 (11732012_x_at) / RFU MBOAT4 (11741988_at) / Fold change /veh MBOAT4 (11741988_at) / RFU 11764193_at / Fold change /veh 11764193_at / RFU TMEM53 (11763286_at) / Fold change /veh TMEM53 (11763286_at) / RFU MAGEB2 (11727129_at) / Fold change /veh MAGEB2 (11727129_at) / RFU TMEM200A (11744735_a_at) / Fold change /veh TMEM200A (11744735_a_at) / RFU CCDC152 (11751479_a_at) / Fold change /veh CCDC152 (11751479_a_at) / RFU FAM211A (11726209_a_at) / Fold change /veh FAM211A (11726209_a_at) / RFU RGS16 (11746705_a_at) / Fold change /veh RGS16 (11746705_a_at) / RFU VCAN (11755009_s_at) / Fold change /veh VCAN (11755009_s_at) / RFU RHOB (11743442_s_at) / Fold change /veh RHOB (11743442_s_at) / RFU RGS16 (11720943_a_at) / Fold change /veh RGS16 (11720943_a_at) / RFU RGS16 (11720944_at) / Fold change /veh RGS16 (11720944_at) / RFU, VPS4B / Fold change vs veh, VPS4B / RFU, CREB1 / Fold change vs veh, CREB1 / RFU, DNAJC13 / Fold change vs veh, DNAJC13 / RFU, GNAQ / Fold change vs veh, GNAQ / RFU, CDK5R1 / Fold change vs veh, CDK5R1 / RFU, ZRANB3 / Fold change vs veh, ZRANB3 / RFU, CUL4A / Fold change vs veh, CUL4A / RFU, CCNY / Fold change vs veh, CCNY / RFU, UFL1 / Fold change vs veh, UFL1 / RFU, COG3 / Fold change vs veh, COG3 / RFU, DIAPH2 / Fold change vs veh, DIAPH2 / RFU, SKA2 / Fold change vs veh, SKA2 / RFU, AFF3 / Fold change vs veh, AFF3 / RFU, LMF1 / Fold change vs veh, LMF1 / RFU, IPO11 / Fold change vs veh, IPO11 / RFU, DFFB / Fold change vs veh, DFFB / RFU, FOXP1 / Fold change vs veh, FOXP1 / RFU, CARD8 / Fold change vs veh, CARD8 / RFU, STRN3 / Fold change vs veh, STRN3 / RFU, ADK / Fold change vs veh, ADK / RFU, RASSF2 / Fold change vs veh, RASSF2 / RFU, WIPF1 / Fold change vs veh, WIPF1 / RFU, LARP1B / Fold change vs veh, LARP1B / RFU, RASA1 / Fold change vs veh, RASA1 / RFU, RB1 / Fold change vs veh, RB1 / RFU, PPFIA1 / Fold change vs veh, PPFIA1 / RFU, MAT2A / Fold change vs veh, MAT2A / RFU, CCT5 / Fold change vs veh, CCT5 / RFU, WDR92 / Fold change vs veh, WDR92 / RFU, CUX1 / Fold change vs veh, CUX1 / RFU, TTC7A / Fold change vs veh, TTC7A / RFU, TMEM135 / Fold change vs veh, TMEM135 / RFU, DEPTOR / Fold change vs veh, DEPTOR / RFU, CPM / Fold change vs veh, CPM / RFU, DNAJB6 / Fold change vs veh, DNAJB6 / RFU, CACNA2D3 / Fold change vs veh, CACNA2D3 / RFU, DTX4 / Fold change vs veh, DTX4 / RFU, TFCP2 / Fold change vs veh, TFCP2 / RFU, GMCL1 /// GMCL1P1 / Fold change vs veh, GMCL1 /// GMCL1P1 / RFU, AEBP2 / Fold change vs veh, AEBP2 / RFU, SNHG1 /// SNORD22 /// SNORD25 /// SNORD26 /// SNORD27 /// SNORD28 /// SNORD29 /// SNORD31 / Fold change vs veh, SNHG1 /// SNORD22 /// SNORD25 /// SNORD26 /// SNORD27 /// SNORD28 /// SNORD29 /// SNORD31 / Fold change (Aza/veh), C12orf56 (ProbeSet 11735607_a_at) / Fold change (ACY-1035/veh), C12orf56 (ProbeSet 11735607_a_at) / Fold change (Aza/veh), FGFR1OP (ProbeSet 11751329_s_at) / Fold change (ACY-1035/veh), FGFR1OP (ProbeSet 11751329_s_at) / Fold change (Aza/veh), VPS36 (ProbeSet 11739960_a_at) / Fold change (ACY-1035/veh), VPS36 (ProbeSet 11739960_a_at) / RFU SYPL1 (11715823_x_at) / Fold change /veh SYPL1 (11715823_x_at) / RFU IGFBP7 (11715501_s_at) / Fold change /veh IGFBP7 (11715501_s_at) / RFU REEP3 (11722064_at) / Fold change /veh REEP3 (11722064_at) / RFU IGLL1 (11728026_x_at) / Fold change /veh IGLL1 (11728026_x_at): dose or concentration left out as unconfirmed
Settings: ProbeSet 11727958_a_at; LIST B

With `Nc1ccc(-c2cccs2)cc1NC(=O)c1ccc2c(c1)cc(C1CC1)n2CCN1CCOCC1` [ACY-1035] the “Fold change vs veh, ING1” value was 1.02.
